Assays:
[1] = cited from earlier work
[2] = system: cells expressing b-gal constitutively; experiment: Fluorescence microscopy of cells incubated with the probe; type: cell-based; settings: probe 25 μM, 48 hours, serum-free medium
Method: FIG. 4 is a microscope image of the fluorescence of cells expressing b-gal constitutively and which were incubated by probe I.1 at 25 μM for 48 hours in a serum-free medium.

[3] = Negative control of the enzymatic assay: probe in buffered aqueous medium without enzyme (background fluorescence / hydrolytic robustness); type: physicochemical; settings: probe 25 μM, no b-gal, pH 7.4, 25° C., excitation 355 / detection 510 nm
Method: (§1) Probe I.1 was evaluated by incubation with the target enzyme beta-galactosidase (EC 3.2.1.23; <<b-gal>>; commercial) in in vitro medium and in multi-well micro-plates designed for fluorescence readers.
(§2) The main assays were conducted at 25° C. in solutions buffered at pH 7.4, physiological pH). Assays at 37° C. would have required protection of the wells against early evaporation e.g. by covering with a film which would have caused a strong reduction in the sensitivity of fluorescence measurement. A temperature of 25° C. was therefore preferred.
(§3) The following enzymatic assays of probe I.1 were performed in a 96-well microplate in a microplate spectrofluorimeter of Mithras LB 940 type by BERTHOLD TECHNOLOGIES. The excitation wavelength was set at 355 and the detection wavelength at 510 nm, conforming to the spectral properties of dichloro-HPQ.

[4] = system: cells of C17.2 type which express the target enzyme b-gal constitutively; experiment: Incubation of the probe with C17.2 cells, microplate fluorescence; type: cell-based; settings: probe 25 μM, culture plate without serum
Method: The experiment was conducted in a cell culture plate without serum, and the fluorescence signal was measured by the microplate spectrofluorimeter of Mithras LB 940 type by BERTHOLD TECHNOLOGIES.

[5] = system: beta-galactosidase (EC 3.2.1.23; b-gal); experiment: Enzymatic assay: incubation of the probe with beta-galactosidase, microplate fluorescence; type: biochemical
Method: as §1, §2
In the invention when implementing the enzymatic assays, once the minimum concentration allowing triggering of crystal nucleation is reached, there is depositing of a solid fluorophore in a well of a multi-well plate.
as §3

Row | trend in the fluorescence signal in the absence of enzyme (negative control) [3] | capacity to cross the cell membrane [4] | trend in fluorescence signal with increasing probe concentration ([5]; b-gal fixed at 20 μM, three concentrations of probe) | dependence of the fluorescence signal on the concentration of target enzyme ([5]; probe fixed at 25 μM, three concentrations of b-gal) | Structure (SMILES) | solubility in aqueous/physiological media [1] | fluorescent precipitate in cells (microscope image) [2] | conversion by intracellular b-gal (fluorescence signal) [4]
1 |  |  |  |  | O=c1[nH]c(-c2cc(Cl)ccc2O)nc2ccc(Cl)cc12 [dichloro-HPQ, 6-chloro-2-(5-chloro-2-hydroxyphenyl)-4(3H)-Quinazolinone] | fully insoluble |  | 
2 | total absence of a fluorescence signal | cross the cell membrane | Strong growth of the signal | independency of the signal | O=C(Oc1ccc(Cl)cc1-c1nc2ccc(Cl)cc2c(=O)[nH]1)N1CCCCC1CO[C@@H]1O[C@H](CO)[C@H](O)[C@H](O)[C@H]1O (stereo partly shown) [probe I.1] |  | highly fluorescent dichloro-HPQ is precipitated | converted by the enzyme
